Source: ChEMBL document CHEMBL3392959, “Iminosugars as a new class of cholinesterase inhibitors” (Bioorg Med Chem Lett, 2015)
The source made the active and inactive calls. The rule behind the calls is not given here.

Key:
[1] = target: Acetylcholinesterase (Electrophorus electricus) (UniProt O42275); experiment: Inhibition of electric eel AchE using acetylthiocholine iodide as substrate at 250 uM by Ellman method
[2] = target: T1, Acetylcholinesterase (Homo sapiens, UniProt P22303); experiment: Inhibition of human recombinant AchE using acetylthiocholine iodide as substrate at 250 uM by Ellman method
[3] = target: T2, Cholinesterase (Homo sapiens, UniProt P06276); experiment: Inhibition of human recombinant serum BuchE using butyrylthiocholine iodide as substrate at 250 uM by Ellman method
[4] = target: Acetylcholinesterase (Electrophorus electricus, UniProt O42275); experiment: Inhibition of electric eel AchE using acetylthiocholine iodide as substrate by Ellman method
[5] = target: T1, Acetylcholinesterase
Description: Inhibition of human recombinant AchE using acetylthiocholine iodide as substrate by Ellman method

[6] = target: T2, Cholinesterase
Description: Inhibition of human recombinant serum BuchE using butyrylthiocholine iodide as substrate by Ellman method

T1 sequence (P22303 whole entry): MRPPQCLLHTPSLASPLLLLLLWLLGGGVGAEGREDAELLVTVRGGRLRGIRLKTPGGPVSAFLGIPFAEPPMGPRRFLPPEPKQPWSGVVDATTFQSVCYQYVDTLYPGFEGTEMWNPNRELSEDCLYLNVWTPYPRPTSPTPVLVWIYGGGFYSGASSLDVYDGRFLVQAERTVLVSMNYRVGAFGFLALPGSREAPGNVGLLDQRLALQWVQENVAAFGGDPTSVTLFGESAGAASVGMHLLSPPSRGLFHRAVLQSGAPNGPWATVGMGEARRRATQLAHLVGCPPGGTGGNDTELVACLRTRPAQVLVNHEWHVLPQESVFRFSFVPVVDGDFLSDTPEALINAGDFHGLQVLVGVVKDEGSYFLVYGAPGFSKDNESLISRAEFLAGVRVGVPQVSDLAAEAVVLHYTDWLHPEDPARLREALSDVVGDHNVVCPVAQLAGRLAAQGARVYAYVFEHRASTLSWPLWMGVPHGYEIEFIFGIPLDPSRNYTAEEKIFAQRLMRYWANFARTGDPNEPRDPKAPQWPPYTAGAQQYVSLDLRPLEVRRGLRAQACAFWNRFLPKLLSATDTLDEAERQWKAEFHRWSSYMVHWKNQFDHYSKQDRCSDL
Sequence of Acetylcholinesterase (Electrophorus electricus, UniProt O42275) (O42275 whole entry): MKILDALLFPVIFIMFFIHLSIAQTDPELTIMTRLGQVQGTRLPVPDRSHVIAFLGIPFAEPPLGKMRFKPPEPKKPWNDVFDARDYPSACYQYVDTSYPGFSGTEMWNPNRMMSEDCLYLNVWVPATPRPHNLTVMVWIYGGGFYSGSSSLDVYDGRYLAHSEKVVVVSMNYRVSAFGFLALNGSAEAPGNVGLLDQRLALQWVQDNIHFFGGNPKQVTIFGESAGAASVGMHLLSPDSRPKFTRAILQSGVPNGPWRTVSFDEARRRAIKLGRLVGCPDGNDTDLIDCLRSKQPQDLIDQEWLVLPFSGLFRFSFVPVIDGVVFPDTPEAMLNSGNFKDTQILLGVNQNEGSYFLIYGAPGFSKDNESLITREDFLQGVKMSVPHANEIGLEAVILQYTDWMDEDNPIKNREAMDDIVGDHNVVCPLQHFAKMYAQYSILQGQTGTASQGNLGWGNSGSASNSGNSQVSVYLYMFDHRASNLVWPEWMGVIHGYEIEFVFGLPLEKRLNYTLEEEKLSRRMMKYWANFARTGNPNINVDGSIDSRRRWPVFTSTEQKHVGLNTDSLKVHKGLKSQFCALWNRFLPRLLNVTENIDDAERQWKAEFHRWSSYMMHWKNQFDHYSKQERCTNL
Sequence of Acetylcholinesterase (Electrophorus electricus) (O42275 24-633 limits assumed): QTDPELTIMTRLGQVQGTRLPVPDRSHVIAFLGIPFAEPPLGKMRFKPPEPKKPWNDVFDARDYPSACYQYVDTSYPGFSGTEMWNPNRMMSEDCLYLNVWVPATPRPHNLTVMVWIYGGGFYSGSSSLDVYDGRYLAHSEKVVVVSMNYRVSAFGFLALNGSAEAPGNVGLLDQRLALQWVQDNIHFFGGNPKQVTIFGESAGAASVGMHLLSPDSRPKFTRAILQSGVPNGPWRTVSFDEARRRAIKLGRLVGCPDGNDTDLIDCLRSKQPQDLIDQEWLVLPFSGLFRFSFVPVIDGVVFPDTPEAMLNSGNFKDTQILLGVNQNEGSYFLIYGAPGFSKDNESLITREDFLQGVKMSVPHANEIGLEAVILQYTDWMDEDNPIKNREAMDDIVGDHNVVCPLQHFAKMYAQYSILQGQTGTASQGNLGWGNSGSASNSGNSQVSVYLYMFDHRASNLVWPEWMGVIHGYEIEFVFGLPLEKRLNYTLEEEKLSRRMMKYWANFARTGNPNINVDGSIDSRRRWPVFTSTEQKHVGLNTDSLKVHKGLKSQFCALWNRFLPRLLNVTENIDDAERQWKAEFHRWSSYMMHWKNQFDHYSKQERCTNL
T2 sequence (P06276 whole entry): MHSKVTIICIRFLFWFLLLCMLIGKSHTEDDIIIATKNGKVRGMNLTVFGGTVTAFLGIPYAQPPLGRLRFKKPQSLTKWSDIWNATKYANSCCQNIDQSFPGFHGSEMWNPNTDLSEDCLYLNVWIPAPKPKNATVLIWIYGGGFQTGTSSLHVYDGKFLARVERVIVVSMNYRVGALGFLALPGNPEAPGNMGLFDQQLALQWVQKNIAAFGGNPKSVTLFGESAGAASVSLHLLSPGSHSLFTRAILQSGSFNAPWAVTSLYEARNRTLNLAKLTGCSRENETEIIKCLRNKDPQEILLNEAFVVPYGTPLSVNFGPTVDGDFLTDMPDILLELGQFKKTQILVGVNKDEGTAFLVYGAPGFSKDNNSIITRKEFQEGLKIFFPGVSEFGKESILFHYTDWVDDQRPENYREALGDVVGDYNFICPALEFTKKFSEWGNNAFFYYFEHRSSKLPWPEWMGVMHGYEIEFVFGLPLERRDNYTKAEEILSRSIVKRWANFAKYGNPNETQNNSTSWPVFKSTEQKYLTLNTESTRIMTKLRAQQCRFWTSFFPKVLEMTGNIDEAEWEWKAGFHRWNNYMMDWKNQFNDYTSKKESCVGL

SMILES | inhibition [1] | inhibition [2] | inhibition [3] | IC50 [4] [µM] | IC50 [5] [µM] | IC50 [6] [µM]
CCCCCCCCN1C[C@@H](O)[C@H](O)[C@@H](O)[C@H]1CCC | inactive | inactive | inactive | – | – | –
CCCCCCCCCCn1cc(C[C@H]2NC[C@@H](O)[C@H](O)[C@H]2O)nn1 | inactive | inactive | inactive | – | – | –
c1ccc(COC[C@H]2NC[C@H](OCc3ccccc3)[C@@H](OCc3ccccc3)[C@@H]2OCc2ccccc2)cc1 | – | – | – | 3 | 60 | 2
C#CC[C@H]1NC[C@@H](O)[C@H](O)[C@H]1OCc1ccccc1 | inactive | inactive | inactive | – | – | –
O[C@@H]1[C@@H](O)[C@@H](Cc2cn(Cc3ccccc3)nn2)NC[C@H]1O | inactive | inactive | inactive | – | – | –
C=CC[C@H]1NC[C@@H](O)[C@H](O)[C@H]1O | inactive | inactive | inactive | – | – | –
C[Si](C)(C)CCCn1cc(C[C@H]2NC[C@@H](O)[C@H](O)[C@H]2O)nn1 | inactive | inactive | inactive | – | – | –
CCCCN1C[C@@H](O)[C@H](O)[C@@H](O)[C@H]1CCC | inactive | inactive | inactive | – | – | –
CCCCCCO[C@H]1CNC[C@@H](O)[C@@H]1O | inactive | inactive | inactive | – | – | –
O[C@@H]1[C@@H](O)[C@@H](Cc2cn(Cc3cc(OCc4ccccc4)cc(OCc4ccccc4)c3)nn2)NC[C@H]1O | < 50% | < 50% | – | – | – | 1.2
O[C@@H]1[C@@H](OCc2ccccc2)[C@@H](Cc2cn(Cc3ccccc3)nn2)NC[C@H]1O | < 50% | < 50% | – | – | – | 7
O=C1N[C@H](COCc2ccccc2)[C@@H](OCc2ccccc2)[C@H](OCc2ccccc2)[C@H]1OCc1ccccc1 | – | – | – | 2 | 46 | 4
C=CC[C@@H]1[C@H](O)[C@@H](OCc2ccccc2)[C@H](O)CN1CCCCCCCC | – | – | – | 63 | 22 | 3
CCCCCC[C@H]1N[C@@H](CO)[C@@H](O)[C@H](O)[C@H]1O | inactive | inactive | inactive | – | – | –
CCCCCCCCO[C@H]1[C@H](O)[C@@H](O)CN(CCCCCCCC)[C@@H]1CO | inactive | inactive | inactive | – | – | –
CCCc1cn(CCCCCCN2C[C@H](O)[C@@H](O)[C@H](O)[C@H]2CO)nn1 | inactive | inactive | inactive | – | – | –
CCC[C@@H]1NC[C@@H](O)[C@H](O)[C@H]1O | < 50% | < 50% | – | – | – | 210
CCCCCC[C@H]1NC[C@@H](O)[C@H](O)[C@H]1O | inactive | inactive | inactive | – | – | –
CCCCCCCCC[C@H]1NC[C@@H](O)[C@H](O)[C@H]1O | inactive | inactive | inactive | – | – | –
O[C@@H]1[C@@H](O)[C@@H](Cc2cn(CCC(c3ccccc3)c3ccccc3)nn2)NC[C@H]1O | < 50% | < 50% | – | – | – | 15
C=CC[C@H]1NC[C@@H](O)[C@H](OCc2ccccc2)[C@H]1O | < 50% | < 50% | – | – | – | 61
CCCCCCCCO[C@H]1CN(CCCCCCCC)[C@H](CO)[C@H](O)[C@@H]1O | inactive | inactive | inactive | – | – | –
C=CC[C@@H]1[C@H](O)[C@@H](O)[C@H](O)CN1CCCCCCCC | < 50% | < 50% | – | – | – | 161
